Experimental data taken from patent US11667645B2, “Granzyme B directed imaging and therapy” (CytoSite Biopharma Inc., priority 2018, dated 2023).

Molecular target: Granzyme B (human lymphocytes) (Homo sapiens (Human), UniProt P10144)
Assay: human Granzyme B biochemical assay
Details: Granzyme B (human lymphocytes) 5 nM, substrate Ac-IETD-AFC 200 μM, Cpd incubation with enzyme 30 mins, 22° C., read time 60 mins; read-out: IC50
Text: The compounds of Formula I-VIII described above can be tested using the human Granzyme B biochemical assay provided below.
Materials: • 1. Granzyme B (human lymphocytes) Enzyme: Enzo Lifesciences, Cat #ALX-200-602-0010 • 2. Substrate (Ac-IETD-AFC): Enzo Lifesciences, Cat #ALX-260-110-M010 • 3. Standard inhibitor (Compound 20-Isomer3): Synthesized internally in TCG • 4. Dimethyl sulfoxide (DMSO): Sigma-Aldrich, Cat #41639 • 5. HEPES: Gibco, Cat #15630-080 • 6. Calcium chloride: Sigma-Aldrich, Cat #C-5080 • 7. Distilled water: Gibco, Cat #15230-162 • 8. Bovine serum albumin (BSA): Sigma-Aldrich, Cat #A3059 • 9. Black, clear bottom PDL plate (384 wells): Greiner bio-one, Cat #781946 • 10. Polypropylene plate (384 wells): Corning, Cat #3657 Assay Buffer Composition:
Compound Preparation: • 1. DMSO is added to the respective compound vial to make 10 mM Compound stock solution, which is stored at −20° C. • 2. 10 mM Compound stock solution is thawed and 1 mM DMSO stock solution is prepared by adding 45 μl of DMSO to 5 μl of 10 mM compound stock solution. • 3. 1 mM DMSO stock solution is serially diluted (3.16 fold) by adding 10 μl of 1 mM DMSO stock to 21.6 μl of DMSO and mixed well. 10 μl of the resulting solution is then added to 21.6 μl of DMSO and mixed well. This process is continued to create 11 dilution points for the assay standard inhibitor and 8 dilution points for test compounds in 384 well polypropylene plate. • 4. 2 μl of each dilution are dispensed in assay ready plate. • 5. Each well is then diluted 25 fold by adding 48 μl of assay buffer to 2 μl of compound in assay ready plate to make Compound working stock. Enzyme Preparation: • 1. Supplied Granzyme B (human lymphocytes) enzyme is reconstituted to 1 mg/ml (about 31.25 μM) and 1 μl aliquots are kept in −80° C. • 2. 1 μl aliquot is diluted to 625 nM by adding 49 μl of assay buffer containing 0.1% BSA and gently mixed. • 3. 10 nM enzyme working stock is prepared by adding assay buffer containing 0.1% BSA. Substrate Preparation: • 1. Supplied substrate (Ac-IETD-AFC) is reconstituted by adding DMSO to make 10 mM stock, aliquoted and stored in −80° C. • 2. 4 mM substrate mid stock is prepared by adding DMSO. • 3. Substrate working stock i.e. 800 μM is prepared by adding assay buffer. Assay Protocol: • 1. 10 μl of serially diluted Compound working stock (start dose 40 μM) is added from assay ready plate to assay plate according to the plate map. • 2. Positive control (40 μM of standard inhibitor) and negative control (4% DMSO buffer) are added to the respective wells. • 3. 20 μl of Enzyme working stock is added to assay plate and gently mixed. • 4. The plate is incubated at 22° C. for 30 mins and spun at 130 g for 1 minute. • 5. After incubation, 10 μl of Substrate working stock is added to respective wells and mixed (Assay plate is maintained in dark after substrate addition). • 6. The plate is incubated at 22° C. for 60 mins and spun at 130 g for 1 minute. • 7. Fluorescence read (RFU) (Ex: 400 nm/Em: 505 nm) is taken after 60 mins in EnVision Multimode plate reader. Final Assay Concentration:
Data Analysis: • 1. The RFU read is analyzed to calculate percent inhibition by normalizing with positive and negative controls taken as 100% and 0% effect respectively in Microsoft excel. • 2. Graph is generated by putting the analyzed data in GraphPad prism 5.0 software to get IC50 value for each compound.

Granzyme B (human lymphocytes), sequence (P10144 21-247): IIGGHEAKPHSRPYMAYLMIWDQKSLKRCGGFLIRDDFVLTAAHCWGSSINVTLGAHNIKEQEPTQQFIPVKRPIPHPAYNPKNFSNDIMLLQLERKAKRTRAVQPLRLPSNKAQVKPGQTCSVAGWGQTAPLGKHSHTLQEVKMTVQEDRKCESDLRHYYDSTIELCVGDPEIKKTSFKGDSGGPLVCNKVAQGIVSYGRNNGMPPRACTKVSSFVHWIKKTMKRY

Compound	IC50 [µM]
O=C(Cc1ccccc1)N[C@H](C(=O)N[C@H]1CCc2cccc3c2N(C1=O)[C@H](C(=O)NCc1c[nH]nn1)C3)c1ccccc1 [Compound C020, (2S,5S)-4-Oxo-5-((S)-2-phenyl-2-phenylacetylamino-acetylamino)-1,2,4,5,6,7-hexahydro-azepino[3,2,1-hi]indole-2-carboxylic acid (1H-[1,2,3]triazol-4-ylmethyl)-amide]	> 5
CC(=O)N[C@@H](C)C(=O)N[C@H]1CCc2cccc3c2N(C1=O)[C@H](C(=O)NCc1c[nH]nn1)C3 [Compound C024, (2S,5S)-5-((S)-2-Acetylamino-propionylamino)-4-oxo-1,2,4,5,6,7-hexahydro-azepino[3,2,1-hi]indole-2-carboxylic acid (1H-[1,2,3]triazol-4-ylmethyl)-amide]	> 5
CC(=O)N[C@@H](Cc1ccccc1)C(=O)N[C@H]1CCc2cccc3c2N(C1=O)[C@H](C(=O)NCc1c[nH]nn1)C3 [Compound C026, (2S,5S)-5-((S)-2-Acetylamino-3-phenyl-propionylamino)-4-oxo-1,2,4,5,6,7-hexahydro-azepino[3,2,1-hi]indole-2-carboxylic acid (1H-[1,2,3]triazol-4-ylmethyl)-amide]	1 to 5
CC(=O)N[C@@H](CO)C(=O)N[C@H]1CCc2cccc3c2N(C1=O)[C@H](C(=O)NCc1c[nH]nn1)C3 [Compound C029, (2S,5S)-5-((S)-2-Acetylamino-3-hydroxy-propionylamino)-4-oxo-1,2,4,5,6,7-hexahydro-azepino[3,2,1-hi]indole-2-carboxylic acid (1H-[1,2,3]triazol-4-ylmethyl)-amide]	> 5
CC(=O)N[C@@H](CCC(=O)O)C(=O)N[C@H]1CCc2cccc3c2N(C1=O)[C@H](C(=O)NCc1c[nH]nn1)C3 [Compound C030, (S)-4-Acetylamino-4-{(2S,5S)-4-oxo-2-[(1H-[1,2,3]triazol-4-ylmethyl)-carbamoyl]-1,2,4,5,6,7-hexahydro-azepino[3,2,1-hi]indol-5-ylcarbamoyl}-butyric acid]	> 5

Next, values leading:

IC50 [µM]	Compound
> 5	O=C(O)CC[C@H](NC(=O)Cc1ccccc1)C(=O)N[C@H]1CCc2cccc3c2N(C1=O)[C@H](C(=O)NCc1c[nH]nn1)C3 [Compound C019, (S)-4-{(2S,5S)-4-Oxo-2-[(1H-[1,2,3]triazol-4-ylmethyl)-carbamoyl]-1,2,4,5,6,7-hexahydro-azepino[3,2,1-hi]indol-5-ylcarbamoyl}-4-phenylacetylamino-butyric acid]
1 to 5	O=C(Cc1ccccc1)N[C@@H](Cc1ccc(O)cc1)C(=O)N[C@H]1CCc2cccc3c2N(C1=O)[C@H](C(=O)NCc1c[nH]nn1)C3 [Compound C021, (2S,5S)-5-[(S)-3-(4-Hydroxy-phenyl)-2-phenylacetylamino-propionylamino]-4-oxo-1,2,4,5,6,7-hexahydro-azepino[3,2,1-hi]indole-2-carboxylic acid (1H-[1,2,3]triazol-4-ylmethyl)-amide]
> 5	O=C(Cc1ccccc1)N[C@@H](Cc1ccc(F)cc1)C(=O)N[C@H]1CCc2cccc3c2N(C1=O)[C@H](C(=O)NCc1c[nH]nn1)C3 [Compound C022, (2S,5S)-5-[(S)-3-(4-Fluoro-phenyl)-2-phenylacetylamino-propionylamino]-4-oxo-1,2,4,5,6,7-hexahydro-azepino[3,2,1-hi]indole-2-carboxylic acid (1H-[1,2,3]triazol-4-ylmethyl)-amide]
> 5	CC(=O)NCC(=O)N[C@H]1CCc2cccc3c2N(C1=O)[C@H](C(=O)NCc1c[nH]nn1)C3 [Compound C023, (2S,5S)-5-(2-Acetylamino-acetylamino)-4-oxo-1,2,4,5,6,7-hexahydro-azepino[3,2,1-hi]indole-2-carboxylic acid (1H-[1,2,3]triazol-4-ylmethyl)-amide]
1 to 5	CC(=O)N[C@@H](CC(C)C)C(=O)N[C@H]1CCc2cccc3c2N(C1=O)[C@H](C(=O)NCc1c[nH]nn1)C3 [Compound C027, (2S,5S)-5-((S)-2-Acetylamino-4-methyl-pentanoylamino)-4-oxo-1,2,4,5,6,7-hexahydro-azepino[3,2,1-hi]indole-2-carboxylic acid (1H-[1,2,3]triazol-4-ylmethyl)-amide]
